Measurements taken from PubChem BioAssay (NCI).
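Grown in 96-well plates, cells were treated for 48 hours with each compound at five concentrations. Insufficient inhibition: endpoint recorded as highest concentration tested. At the TGI there is no net growth.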

Legend:
Test in all cases: growth of human tumour cells (NCI), 48 h
[1] = tested on: 786-0 renal
[2] = tested on: A498 renal
[3] = tested on: A549 NSCLC
[4] = tested on: ACHN renal
[5] = tested on: BT-549 breast
[6] = tested on: CCRF-CEM leukemia
[7] = tested on: COLO 205 colon
[8] = tested on: DU-145 prostate
[9] = tested on: EKVX NSCLC
[10] = tested on: HCC-2998 colon
[11] = tested on: HCT-15 colon
[12] = tested on: HL-60(TB) leukemia
[13] = tested on: HOP-62 NSCLC
[14] = tested on: HOP-92 NSCLC
[15] = tested on: HS 578T breast
[16] = tested on: HT29 colon
[17] = tested on: K-562 leukemia
[18] = tested on: KM12 colon
[19] = tested on: LOX IMVI melanoma
[20] = tested on: M14 melanoma
[21] = tested on: MALME-3M melanoma
[22] = tested on: MCF7 breast
[23] = tested on: MDA-MB-231 breast
[24] = tested on: MDA-MB-435
[25] = tested on: MDA-N
[26] = tested on: MOLT-4 leukemia
[27] = tested on: NCI-H226 lung
[28] = tested on: NCI-H23 lung
[29] = tested on: NCI-H460 lung
[30] = tested on: NCI/ADR-RES ovarian
[31] = tested on: OVCAR-3 ovarian
[32] = tested on: OVCAR-4 ovarian
[33] = tested on: OVCAR-5 ovarian
[34] = tested on: OVCAR-8 ovarian
[35] = tested on: PC-3 prostate
[36] = tested on: RPMI-8226 leukemia
[37] = tested on: SF-268 CNS
[38] = tested on: SF-295 CNS
[39] = tested on: SF-539 CNS
[40] = tested on: SK-MEL-2 melanoma
[41] = tested on: SK-MEL-28 melanoma
[42] = tested on: SK-MEL-5 melanoma
[43] = tested on: SK-OV-3 ovarian
[44] = tested on: SN12C renal
[45] = tested on: SNB-19 CNS
[46] = tested on: SNB-75 CNS
[47] = tested on: SR leukemia
[48] = tested on: SW-620 colon
[49] = tested on: T-47D breast
[50] = tested on: TK-10 renal
[51] = tested on: U251 CNS
[52] = tested on: UACC-257 melanoma
[53] = tested on: UACC-62 melanoma
[54] = tested on: UO-31 renal
[55] = tested on: HCT-116 colon
[56] = tested on: IGROV1 ovarian
[57] = tested on: RXF 393 renal

`NC(=NCc1ccccc1)N/N=C\c1ccnc2ccccc12` was tested, and the TGI [1] was 29.9 µM, the TGI [2] was 25.2 µM and the TGI [3] was 36.9 µM. For the same molecule, the TGI [4] was 32 µM, the TGI [5] was 18.6 µM and the TGI [6] was 76.3 µM. For the same molecule, the TGI [7] was 3.21 µM, the TGI [8] was 32.3 µM and the TGI [9] was 33.1 µM. The TGI [10] was 4.51 µM, the TGI [11] was 37.4 µM and the TGI [12] was 36.4 µM. The TGI [13] was 32.1 µM, the TGI [14] was 7.86 µM and the TGI [15] was 49.4 µM. It also gave a TGI [16] of 25.4 µM, a TGI [17] of 24.2 µM and a TGI [18] of 47.9 µM. For the same molecule, the TGI [19] was 28.5 µM, the TGI [20] was 17.5 µM and the TGI [21] was 27 µM. It also gave a TGI [22] of 25.5 µM, a TGI [23] of 28.2 µM and a TGI [24] of 23.9 µM. For the same molecule, the TGI [25] was 26.6 µM, the TGI [26] was 46 µM and the TGI [27] was 38.6 µM. It also gave a TGI [28] of 31.7 µM, a TGI [29] of 31 µM and a TGI [30] of 35.6 µM. It also gave a TGI [31] of 27.2 µM, a TGI [32] of 33 µM and a TGI [33] of 32.7 µM. The TGI [34] was 29.9 µM, the TGI [35] was 35.9 µM and the TGI [36] was 4.14 µM. The TGI [37] was 28.6 µM, the TGI [38] was 32.2 µM and the TGI [39] was 29.2 µM. It also gave a TGI [40] of 22.1 µM, a TGI [41] of 25.1 µM and a TGI [42] of 20 µM. The TGI [43] was 29.7 µM, the TGI [44] was 29.6 µM and the TGI [45] was 36.9 µM. It also gave a TGI [46] of 21.5 µM, a TGI [47] of 4.98 µM and a TGI [48] of 31.2 µM. The TGI [49] was 5.87 µM, the TGI [50] was 32.1 µM and the TGI [51] was 36.6 µM. The TGI [52] was 8.63 µM, the TGI [53] was 29.4 µM and the TGI [54] was 22.1 µM.

`N#CCCN(CCC#N)c1ccc(/C=C2\N=C(c3ccccc3)N(NC(=O)c3ccncc3)C2=O)cc1` was tested, and the TGI [1] was > 100 µM, the TGI [2] was > 100 µM and the TGI [3] was > 100 µM. For the same molecule, the TGI [4] was > 100 µM, the TGI [5] was > 100 µM and the TGI [7] was > 100 µM. The TGI [8] was > 100 µM, the TGI [9] was > 100 µM and the TGI [55] was > 100 µM. For the same molecule, the TGI [11] was > 100 µM, the TGI [12] was > 100 µM and the TGI [13] was > 100 µM. The TGI [14] was > 100 µM, the TGI [15] was > 100 µM and the TGI [16] was > 100 µM. For the same molecule, the TGI [56] was > 100 µM, the TGI [17] was > 100 µM and the TGI [18] was > 100 µM. For the same molecule, the TGI [19] was > 100 µM, the TGI [20] was > 100 µM and the TGI [22] was > 100 µM. For the same molecule, the TGI [23] was > 100 µM, the TGI [24] was > 100 µM and the TGI [25] was > 100 µM. The TGI [26] was > 100 µM, the TGI [27] was > 100 µM and the TGI [29] was > 100 µM. For the same molecule, the TGI [30] was > 100 µM, the TGI [31] was > 100 µM and the TGI [32] was > 100 µM. The TGI [33] was > 100 µM, the TGI [34] was > 100 µM and the TGI [35] was > 100 µM. The TGI [36] was > 100 µM, the TGI [57] was > 100 µM and the TGI [37] was > 100 µM. For the same molecule, the TGI [38] was > 100 µM, the TGI [39] was > 100 µM and the TGI [40] was > 100 µM. For the same molecule, the TGI [41] was > 100 µM, the TGI [42] was > 100 µM and the TGI [43] was > 100 µM. For the same molecule, the TGI [44] was > 100 µM, the TGI [45] was > 100 µM and the TGI [48] was > 100 µM. The TGI [49] was > 100 µM, the TGI [50] was > 100 µM and the TGI [51] was > 100 µM. The TGI [52] was > 100 µM, the TGI [53] was > 100 µM and the TGI [54] was > 100 µM.
